Reference: US10603357B2, “Therapeutic TREM-1 peptides” (Universite de Lorraine, priority 2004, dated 2020)

Assays:
NF-κB p50 and p65 = test: NF-κB activity in monocytes (ELISA-based assay); format: cell-based, human; conditions: P5 100 ng/mL, 24 hours
Method: Monocytes were cultured for 24 hours in the presence of E. coli LPS (O111:B4, 1 μg/mL), anti-TREM-1 mAb (10 μg/mL) and/or P5 (100 ng/mL) as indicated and the levels of NFκB p50 and p65 were determined using an ELISA-based assay. Experiments were performed in triplicate and data are expressed as means of optical densities (SEM).
In order to activate monocytes through TREM-1, an anti-TREM-1 agonist monoclonal antibody (R&D Systems) was added as follows: flat-bottom plates were precoated with 10 μg/mL anti-TREM-1 per well. After thorough washing in phosphate buffered saline (PBS), the monocyte suspensions were added at a similar concentration as above. Some experiments were performed in the presence of protease inhibitors (PMSF and Protease Cocktail Inhibitor; Invitrogen). Cell-free supernatants were assayed for the production of TNF-α and IL-1β by ELISA according to the recommendations of the manufacturer (BD Biosciences, San Diego, USA). To address the effect of P5 on NF-κB activity in monocytes, an ELISA-based assay was performed (BD Mercury™ Transfactor Kit, BD Biosciences). […] Whole-cell extracts were then prepared and levels of NF-κB p50 and p65 were determined according to the recommendations of the manufacturer. All experiments were performed in triplicate and data are expressed as means (SEM). Identification and Quantitation of sTREM-1 Release

human monocytes = test: in vitro stimulation of monocytes: TNF-α, IL-1β and sTREM-1 release; format: cell-based; conditions: P5 or control peptide 10 to 100 ng/mL, rIL-10 500 U/mL
Method: For cell activation, primary monocytes were cultured in 24-well flat-bottom tissue culture plates in the presence of LPS (1 μg/mL). In some experiments this stimulus was provided in combination with P5 (10 to 100 ng/mL), control peptide (10 to 100 ng/mL) or rIL-10 (500 U/mL). To activate monocytes through TREM-1, an agonist anti-TREM-1 mAb (10 μg/mL) was added as indicated. Cell-free supernatants were analysed for production of TNF-α, IL-1β. and sTREM-1 by ELISA or immunodot. All experiments were performed in triplicate and data are expressed as means (SEM). • a: Media • b: P5 10 ng/mL • c: Anti-TREM-1 • d: LPS • e: LPS+Anti-TREM-1 • f: LPS+P5 10 ng/mL • g: LPS+P5 50 ng/mL • h: LPS+P5 100 ng/mL • i: LPS+IL10
Ten mL of peripheral blood samples were collected on EDTA-K from 5 healthy volunteer donors originating from laboratory staff. After dilution in RPMI (Life Technologies, Grand Island, N.Y.) v/v, blood was centrifuged for 30 min at room temperature over a Ficoll gradient (Amersham Pharmacia, Uppsala, Sweden) to isolate PBMC. The cells recovered above the gradient were washed and counted. In order to deplete the suspensions of lymphocytes, cells were then plated in 24-well flat-bottom tissue culture plates (Corning, Corning, N.Y.) at a concentration of 5×10^6/mL and allowed to adhere during 2 hours at 37° C. The resulting lymphocyte suspension was discarded and the adhering monocytic cells were maintained in a 5% CO2 incubator at 37° C. in complete medium (RPMI 1640, 0.1 mM sodium pyruvate, […], 50 μg/mL Streptomycin; Life Technologies) supplemented with 10% FCS (Invitrogen, Cergy, France).
For activation, monocytes were cultured in the presence of E. coli LPS (0111:B4, 1 μg/mL, Sigma-Aldrich, La Verpillière, France). Cell viability was assessed by trypan blue exclusion and by measuring lactate dehydrogenase release. In some experiments, this stimulus was given in combination with TNF-α (5 to 100 ng/mL, R&D Systems, Lille, France), IL-1β (5 to 100 ng/mL, R&D Systems), rIFN-γ (up to 100 U/mL, R&D Systems), rIL-10 (500 U/ml, R&D Systems) or up to 100 ng/mL of P5 or control peptide.
In order to activate monocytes through TREM-1, an anti-TREM-1 agonist monoclonal antibody (R&D Systems) was added as follows: flat-bottom plates were precoated with 10 μg/mL anti-TREM-1 per well. After thorough washing in phosphate buffered saline (PBS), the monocyte suspensions were added at a similar concentration as above. Some experiments were performed in the presence of protease inhibitors (PMSF and Protease Cocktail Inhibitor; Invitrogen). Cell-free supernatants were assayed for the production of TNF-α and IL-1β by ELISA according to the recommendations of the manufacturer (BD Biosciences, San Diego, USA). To address the effect of P5 on NF-κB activity in monocytes, an ELISA-based assay was performed (BD Mercury™ Transfactor Kit, BD Biosciences). Monocytes were cultured for 24 hours in the presence of E. coli LPS (O111:B4, 1 μg/mL), and/or an agonist anti-TREM-1 monoclonal antibody (10 μg/mL), and/or P5 (100 ng/mL). Whole-cell extracts were then prepared and levels of NF-κB p50 and p65 were determined according to the recommendations of the manufacturer. All experiments were performed in triplicate and data are expressed as means (SEM). Identification and Quantitation of sTREM-1 Release
Primary monocytes suspensions were cultured as described above. The cells were treated with E. coli LPS (0111:B4, 1 μg/mL) for 24 hours at 37° C. Cell-conditioned medium was submitted to Western-blotting using an anti-TREM-1 monoclonal antibody (R&D Systems) in order to confirm the presence of 27 kDa material recognized by anti-TREM-1. Soluble TREM-1 levels were measured by assessing the optical intensity of bands on immunodots by means of a reflectance scanner and the Quantity One Quantitation Software (Bio-Rad, Cergy, France) as reported elsewhere (18). […]

C57BL/6 mice = test: cecal ligation and puncture (CLP), survival of mice (Example 1); format: in vivo, mouse; conditions: 200 μl of 600 μM i.p. 5 and 24 hours after CLP; 5 days after CLP; 15 per group
Method: CLP was induced in C57BL/6 mice (15 per group) as described in Materials and Methods. P1 peptide (empty dots) or P3 peptide (filled squares) (200 μl of a 600 μM solution per mouse) were injected intraperitoneally 5 and 24 hours after CLP induction. Viability of mice was monitored twice a day for 10 days. Statistical analysis was performed with the Logrank test.
In order to investigate whether TREM-1 peptide treatment could be delayed until after the administration of LPS, the Inventors injected the peptides at 4 hours after LPS injection. […] 80% of the mice injected with P1 4 hours after LPS survived endotoxaemia compared to 60% of mice treated 1 h before LPS and 10% of mice treated with vehicle alone (p<0.001 and p<0.01 respectively). Thus, P1 is effective even when injected after the outbreak of endotoxaemia. […] P1 administration conferred maximal protection (80%) when administered at 600 μM (p<0.01) and the level of protection dropped to 50% at 300 μM (p<0.05) and further down to 30% at 150 μM as compared to 20% of control mice, indicating a dose dependent effect of P1 (FIG. 4). The Inventors then investigated whether P1 protects against septic shock in the “CLP” model (Cecal Ligation and Puncture is a widely used experimental model of sepsis). […]

LQVTDSGLYRCVIYHPP [P5]
effect of LPS on NF-κB activation (NF-κB p50 and p65; LPS 1 μg/mL): did not alter | NF-κB activation induced by the engagement of TREM-1 (NF-κB p50 and p65; anti-TREM-1 mAb 10 μg/mL): inhibited | TNF-α and IL-1β production (release of inflammatory cytokines) in monocyte supernatant (human monocytes; LPS 1 μg/mL or LPS + anti-TREM-1 mAb): reduced, in a concentration-dependent manner | release of sTREM-1 from monocytes cultured with LPS (human monocytes; LPS 1 μg/mL): increased

LVVTQRPFTRPSEVHMGKFTLKH (listed as Mus musculus) [P1]
mice surviving after CLP (C57BL/6 mice): 40%
